Measurements: ChEMBL document CHEMBL4229332, “Novel multi-target azinesulfonamides of cyclic amine derivatives as potential antipsychotics with pro-social and pro-cognitive effects” (Eur J Med Chem, 2018)

How the values were obtained:
[1] = target: T1, 5-hydroxytryptamine receptor 1A (Homo sapiens, UniProt P08908); test: biochemical
T1 sequence (P08908 whole entry): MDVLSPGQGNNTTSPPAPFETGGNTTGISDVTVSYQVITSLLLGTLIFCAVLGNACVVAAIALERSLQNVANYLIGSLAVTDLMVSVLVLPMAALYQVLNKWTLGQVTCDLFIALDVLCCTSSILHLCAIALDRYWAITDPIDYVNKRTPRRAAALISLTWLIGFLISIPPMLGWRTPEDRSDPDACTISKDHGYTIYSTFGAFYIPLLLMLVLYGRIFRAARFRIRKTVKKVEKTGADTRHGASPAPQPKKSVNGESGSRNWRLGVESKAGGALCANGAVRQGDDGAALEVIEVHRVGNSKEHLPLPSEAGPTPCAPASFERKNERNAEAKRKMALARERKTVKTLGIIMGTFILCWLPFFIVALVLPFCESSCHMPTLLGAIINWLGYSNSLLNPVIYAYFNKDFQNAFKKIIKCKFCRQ
Description: Displacement of [3H]-8-OH-DPAT from human 5-HT1AR expressed in HEK293 cell membranes after 1 hr by microbeta counting method

[2] = target: 5-hydroxytryptamine receptor 6 (Homo sapiens, UniProt P50406); test: biochemical
Description: Displacement of [3H]-LSD from human 5-HT6R expressed in HEK293 cell membranes after 1 hr at 37 degC by microbeta counting method

[3] = target: 5-hydroxytryptamine receptor 2A (Homo sapiens, UniProt P28223); test: biochemical; assay type: cell-based, CHO-K1
[4] = target: 5-hydroxytryptamine receptor 7 (Homo sapiens, UniProt P34969); test: biochemical
Description: Displacement of [3H]-5-CT from human 5-HT7R expressed in HEK293 cell membranes after 1 hr at 37 degC by microbeta counting method

[5] = Ratio of drug level in brain to plasma in Wistar rat at 3 mg/kg, ip measured after 60 mins by LC-MS/MS analysis; assay type: ADME, organism-based; conditions: read-out: BPR
[6] = Drug level in Wistar rat plasma at 3 mg/kg, ip measured after 30 mins by LC-MS/MS analysis; assay type: ADME, organism-based
[7] = Ratio of drug level in brain to plasma in Wistar rat at 3 mg/kg, ip measured after 15 mins by LC-MS/MS analysis; assay type: ADME, organism-based; conditions: read-out: BPR
[8] = Drug level in Wistar rat plasma at 3 mg/kg, ip measured after 60 mins by LC-MS/MS analysis; assay type: ADME, organism-based
[9] = Ratio of drug level in brain to plasma in Wistar rat at 3 mg/kg, ip measured after 30 mins by LC-MS/MS analysis; assay type: ADME, organism-based; conditions: read-out: BPR
[10] = Drug level in Wistar rat brain at 3 mg/kg, ip measured after 60 mins by LC-MS/MS analysis; assay type: ADME, organism-based; conditions: read-out: Drug uptake
[11] = Drug level in Wistar rat plasma at 3 mg/kg, ip measured after 15 mins by LC-MS/MS analysis; assay type: ADME, organism-based
[12] = Drug level in Wistar rat brain at 3 mg/kg, ip measured after 30 mins by LC-MS/MS analysis; assay type: ADME, organism-based; conditions: read-out: Drug uptake
[13] = Drug level in Wistar rat brain at 3 mg/kg, ip measured after 15 mins by LC-MS/MS analysis; assay type: ADME, organism-based; conditions: read-out: Drug uptake

Chain of 5-hydroxytryptamine receptor 6 (P50406 whole entry): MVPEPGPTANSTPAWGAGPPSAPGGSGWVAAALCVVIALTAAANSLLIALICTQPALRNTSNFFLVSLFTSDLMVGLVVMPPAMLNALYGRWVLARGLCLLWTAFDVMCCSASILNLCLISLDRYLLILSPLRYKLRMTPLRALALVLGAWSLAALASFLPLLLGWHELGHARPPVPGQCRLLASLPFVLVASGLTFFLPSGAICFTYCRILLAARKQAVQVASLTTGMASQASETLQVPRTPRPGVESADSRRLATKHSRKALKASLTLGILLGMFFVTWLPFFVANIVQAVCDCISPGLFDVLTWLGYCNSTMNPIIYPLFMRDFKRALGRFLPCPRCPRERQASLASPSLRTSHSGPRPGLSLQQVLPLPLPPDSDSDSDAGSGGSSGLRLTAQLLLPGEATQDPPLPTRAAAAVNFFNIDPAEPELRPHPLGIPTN
Chain of 5-hydroxytryptamine receptor 2A (P28223 whole entry): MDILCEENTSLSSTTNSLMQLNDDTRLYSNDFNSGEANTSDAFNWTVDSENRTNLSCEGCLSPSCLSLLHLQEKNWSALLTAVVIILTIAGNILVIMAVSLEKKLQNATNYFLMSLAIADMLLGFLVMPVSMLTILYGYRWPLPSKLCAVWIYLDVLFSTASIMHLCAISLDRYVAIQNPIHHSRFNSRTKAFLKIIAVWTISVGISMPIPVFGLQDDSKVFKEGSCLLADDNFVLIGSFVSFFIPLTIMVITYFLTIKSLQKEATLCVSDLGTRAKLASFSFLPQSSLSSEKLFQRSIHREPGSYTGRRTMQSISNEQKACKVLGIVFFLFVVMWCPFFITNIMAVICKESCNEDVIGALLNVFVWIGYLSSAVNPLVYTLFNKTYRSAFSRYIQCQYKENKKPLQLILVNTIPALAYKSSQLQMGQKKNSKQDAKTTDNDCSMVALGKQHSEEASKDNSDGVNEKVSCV
Chain of 5-hydroxytryptamine receptor 7 (P34969 whole entry): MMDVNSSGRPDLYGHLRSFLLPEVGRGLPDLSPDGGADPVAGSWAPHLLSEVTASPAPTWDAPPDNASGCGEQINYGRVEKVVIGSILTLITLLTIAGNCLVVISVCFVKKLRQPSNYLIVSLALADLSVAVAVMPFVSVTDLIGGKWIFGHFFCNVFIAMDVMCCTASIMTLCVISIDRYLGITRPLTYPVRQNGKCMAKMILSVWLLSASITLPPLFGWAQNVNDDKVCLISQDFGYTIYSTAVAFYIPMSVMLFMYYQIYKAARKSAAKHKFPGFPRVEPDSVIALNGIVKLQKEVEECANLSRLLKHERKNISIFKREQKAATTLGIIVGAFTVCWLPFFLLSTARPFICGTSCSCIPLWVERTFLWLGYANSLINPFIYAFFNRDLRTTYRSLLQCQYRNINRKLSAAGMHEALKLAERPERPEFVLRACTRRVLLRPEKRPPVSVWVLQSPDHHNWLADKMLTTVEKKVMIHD

| Compound | Ki [1] [nM] | Ki [2] [nM] | Ki [3] [nM] | Ki [4] [nM] | also measured |
| --- | --- | --- | --- | --- | --- |
| O=S(=O)(c1cccc2cnccc12)N1CCC[C@H]1CCN1CCN(c2cccc3sccc23)CC1 | 10 | 72 | 9 | 23 |  |
| O=S(=O)(c1cncc2ccccc12)N1CCC[C@H]1CCN1CCN(c2noc3ccccc23)CC1 | 96 | 497 | 33 | 6 |  |
| O=S(=O)(c1cccc2ncccc12)N1CCCC[C@@H]1CCN1CCN(c2cccc3sccc23)CC1 | 15 | 337 | 35 | 22 |  |
| O=S(=O)(c1ccnc2ccccc12)N1CCCCC[C@H]1CCN1CCN(c2nsc3ccccc23)CC1 | 50 | 623 | 26 | 19 |  |
| O=S(=O)(c1cccc2cnccc12)N1CCC[C@@H]1CCN1CCN(c2nsc3ccccc23)CC1 | 16 | 40 | 15 | 1 | Kp at 1 h [5]: 0.45; concentration at 0.5 h [6]: 389 nM; Kp at 0.25 h [7]: 0.28; concentration at 1 h [8]: 79.2 nM; Kp at 0.5 h [9]: 0.21; concentration at 1 h [10]: 35.5 nM; concentration at 0.25 h [11]: 450 nM; concentration at 0.5 h [12]: 81.9 nM; concentration at 0.25 h [13]: 114 nM |
| O=S(=O)(c1cccc2ncccc12)N1CC[C@@H]1CCN1CCN(c2cccc3sccc23)CC1 | 9 | 130 | 7 | 45 |  |
| O=c1[nH]c2c(N3CCN(CC[C@H]4CCCN4S(=O)(=O)c4cncc5ccccc45)CC3)cccc2o1 | 36 | 1810 | 1970 | 1340 |  |
| O=S(=O)(c1cccc2ncccc12)N1CC[C@@H]1CCN1CCN(c2nsc3ccccc23)CC1 | 54 | 344 | 30 | 57 |  |
| O=S(=O)(c1cncc2ccccc12)N1CCC[C@H]1CCN1CCN(c2cccc3c2OCCO3)CC1 | 6 | 1480 | 91 | 142 |  |
| O=S(=O)(c1ccnc2ccccc12)N1CCCC[C@@H]1CCN1CCN(c2nsc3ccccc23)CC1 | 24 | 1260 | 35 | 69 |  |
| O=S(=O)(c1cccc2cnccc12)N1CCC[C@@H]1CCN1CCN(c2cccc3sccc23)CC1 | 13 | 9 | 19 | 3 |  |
| O=S(=O)(c1cncc2ccccc12)N1CCC[C@@H]1CCN1CC=C(c2c[nH]c3ccc(Cl)cc23)CC1 | 147 | 23 | 1900 | 8 |  |
| O=S(=O)(c1cncc2ccccc12)N1CCC[C@@H]1CCN1CCN(c2cccc3c2OCCO3)CC1 | 7 | 1260 | 390 | 52 |  |
| O=S(=O)(c1cncc2ccccc12)N1CCCCC[C@H]1CCN1CCN(c2cccc3sccc23)CC1 | 8 | 190 | 29 | 24 |  |
| O=S(=O)(c1cncc2ccccc12)N1CC[C@@H]1CCN1CCN(c2nsc3ccccc23)CC1 | 56 | 348 | 24 | 51 |  |
| O=S(=O)(c1cncc2ccccc12)N1CCC[C@@H]1CCN1CCN(c2cccc3[nH]ccc23)CC1 | 6 | 766 | 76 | 4 |  |
| O=S(=O)(c1cccc2ncccc12)N1CCCCC[C@H]1CCN1CCN(c2cccc3sccc23)CC1 | 12 | 176 | 51 | 19 |  |
| O=S(=O)(c1cncc2ccccc12)N1CCCC[C@@H]1CCN1CCN(c2cccc3sccc23)CC1 | 12 | 221 | 64 | 32 |  |
| O=S(=O)(c1cccc2ncccc12)N1CCCCC[C@H]1CCN1CCN(c2nsc3ccccc23)CC1 | 48 | 457 | 30 | 17 |  |
| O=S(=O)(c1cncc2ccccc12)N1CC[C@@H]1CCN1CCN(c2cccc3sccc23)CC1 | 16 | 104 | 16 | 31 |  |
| O=c1[nH]c2c(N3CCN(CC[C@@H]4CCCN4S(=O)(=O)c4cncc5ccccc45)CC3)cccc2o1 | 27 | 2990 | 2040 | 672 |  |
| O=S(=O)(c1cncc2ccccc12)N1CCC[C@H]1CCN1CCN(c2cccc3[nH]ccc23)CC1 | 8 | 2060 | 82 | 75 |  |
| O=S(=O)(c1cncc2ccccc12)N1CCC[C@H]1CCN1CC=C(c2c[nH]c3ccc(Cl)cc23)CC1 | 66 | 60 | 238 | 97 |  |
| O=S(=O)(c1cccc2cnccc12)N1CCC[C@H]1CCN1CCN(c2nsc3ccccc23)CC1 | 37 | 360 | 18 | 12 | Kp at 1 h [5]: 0.17; concentration at 0.5 h [6]: 417 nM; Kp at 0.25 h [7]: 0.15; concentration at 1 h [8]: 117 nM; Kp at 0.5 h [9]: 0.19; concentration at 1 h [10]: 19.7 nM; concentration at 0.25 h [11]: 647 nM; concentration at 0.5 h [12]: 67.1 nM; concentration at 0.25 h [13]: 90.1 nM |

The next lines start with results.

| Ki [1] [nM] | Ki [2] [nM] | Ki [3] [nM] | Ki [4] [nM] | Compound | also measured |
| --- | --- | --- | --- | --- | --- |
| 24 | 38 | 21 |  | O=S(=O)(c1cccc2ncccc12)N1CCC[C@@H]1CCN1CCN(c2nsc3ccccc23)CC1 |  |
| 91 | 18 | 1150 | 12 | O=S(=O)(c1cccc2ncccc12)N1CCC[C@@H]1CCN1CC=C(c2c[nH]c3ccc(Cl)cc23)CC1 |  |
| 28 | 949 | 29 | 52 | O=S(=O)(c1cccc2ncccc12)N1CCCC[C@@H]1CCN1CCN(c2nsc3ccccc23)CC1 |  |
| 25 | 311 | 16 |  | O=S(=O)(c1cccc2ncccc12)N1CCC[C@H]1CCN1CCN(c2nsc3ccccc23)CC1 |  |
| 15 | 13 | 56 | 1 | O=S(=O)(c1cccc2ncccc12)N1CCC[C@@H]1CCN1CCN(c2cccc3sccc23)CC1 |  |
| 120 | 45 | 5 | 12 | O=S(=O)(c1cccc2ncccc12)N1CCC[C@@H]1CCN1CCC(c2noc3cc(F)ccc23)CC1 |  |
| 6 | 2530 | 110 | 349 | O=S(=O)(c1cccc2ncccc12)N1CCC[C@H]1CCN1CCN(c2cccc3c2OCCO3)CC1 |  |
| 146 | 77 | 1400 | 65 | O=S(=O)(c1cccc2ncccc12)N1CCC[C@H]1CCN1CC=C(c2c[nH]c3ccc(Cl)cc23)CC1 |  |
| 179 | 291 | 49 | 7 | O=S(=O)(c1cccc2ncccc12)N1CCC[C@H]1CCN1CCN(c2noc3ccccc23)CC1 |  |
| 5 | 996 | 296 | 66 | O=S(=O)(c1cccc2ncccc12)N1CCC[C@@H]1CCN1CCN(c2cccc3c2OCCO3)CC1 |  |
| 5 | 641 | 451 | 14 | O=S(=O)(c1cccc2ncccc12)N1CCC[C@@H]1CCN1CCN(c2cccc3[nH]ccc23)CC1 |  |
| 86 | 92 | 41 | 10 | O=S(=O)(c1cccc2cnccc12)N1CCC[C@H]1CCN1CCN(c2noc3ccccc23)CC1 |  |
| 14 | 2310 | 244 | 165 | O=S(=O)(c1cccc2ncccc12)N1CCC[C@H]1CCN1CCN(c2cccc3[nH]ccc23)CC1 |  |
| 23 | 3910 | 2450 | 1120 | O=c1[nH]c2c(N3CCN(CC[C@@H]4CCCN4S(=O)(=O)c4cccc5ncccc45)CC3)cccc2o1 |  |
| 111 | 137 | 6 | 0.4 | O=S(=O)(c1cncc2ccccc12)N1CCC[C@H]1CCN1CCC(c2noc3cc(F)ccc23)CC1 |  |
| 13 | 82 | 36 | 19 | O=S(=O)(c1cccc2ncccc12)N1CCC[C@H]1CCN1CCN(c2cccc3sccc23)CC1 |  |
| 147 | 169 | 12 | 12 | O=S(=O)(c1cccc2ncccc12)N1CCC[C@H]1CCN1CCC(c2noc3cc(F)ccc23)CC1 |  |
